# Reference: ChEMBL document CHEMBL4330126 (2019)
# Calls of active or inactive are those of the source. The rule behind the calls is not given here.
# Tests used:
# RAW264.7 [1] = test: Antiinflammatory activity in mouse RAW264.7 cells assessed as decrease in LPS-induced IL-1beta level at 10^-3 M by ELISA; format: functional; design: scale not given: the % may be the effect or the level left
# RAW264.7 [2] = test: Inhibition of LPS-induced JNK-phosphorylation in mouse RAW264.7 cells at 0.5 x 10^-3 to 10^-3 M after 24 hrs by Western blot analysis; format: cell-based
# [3] = molecular target: MAP kinase p38 (Mus musculus) (UniProt P47811+O08911+Q9WUI1+Q9Z1B7); test: Inhibition of LPS-induced p38 phosphorylation in mouse RAW264.7 cells at 0.5 x 10^-3 to 10^-3 M after 24 hrs by Western blot analysis; format: cell-based
# RAW264.7 [4] = test: Inhibition of LPS-stimulated NFkappaB/MAPK signaling activation in mouse RAW264.7 cells assessed as decrease in phosphorylated IKK protein level level after 24 hrs by Western blot analysis; format: cell-based
# RAW264.7 [5] = test: Inhibition of LPS-stimulated NFkappaB/MAPK signaling activation in mouse RAW264.7 cells assessed as increase in IkappaB protein level after 24 hrs by Western blot analysis; format: cell-based
# RAW264.7 [6] = test: Inhibition of LPS-induced morphological changes in mouse RAW264.7 cells at 0.5 x 10^-3 to 10^-3 M after 24 hrs by […] fluorescence microscopy; format: functional, cell-based
# RAW264.7 [7] = test: Inhibition of LPS-induced ROS generation in mouse RAW264.7 cells at 0.5 x 10^-3 to 10^-3 M after 24 hrs by DCFDA staining-based flow cytometric analysis; format: functional, cell-based
# RAW264.7 [8] = test: Inhibition of LPS-induced ROS generation in mouse RAW264.7 cells at 0.5 x 10^-3 to 10^-3 M after 24 hrs by DCFDA staining-based fluorescence microscopy; format: functional, cell-based
# RAW264.7 [9] = test: Anti-inflammatory activity in mouse RAW264.7 cells assessed as inhibition of LPS-induced iNOS level at 10^-3 M by Western blot analysis; format: functional, cell-based
# RAW264.7 [10] = test: Anti-inflammatory activity in mouse RAW264.7 cells assessed as inhibition of LPS-induced iNOS mRNA expression at 10^-3 M by qRT-PCR analysis; format: functional, cell-based
# RAW264.7 [11] = test: Antiinflammatory activity against mouse RAW264.7 cells assessed as inhibition of LPS-induced nitric oxide production after 24 hrs by Griess assay; format: functional, cell-based
# RAW264.7 [12] = test: Anti-inflammatory activity in mouse RAW264.7 cells assessed as inhibition of LPS-induced IL-8 mRNA expression at 10^-3 M after 24 hrs by qRT-PCR analysis; format: functional; conditions: RAW264.7, 24 h
# RAW264.7 [13] = test: Anti-inflammatory activity in mouse RAW264.7 cells assessed as inhibition of LPS-induced TNF-alpha mRNA expression at 10^-3 M after 24 hrs by qRT-PCR analysis; format: functional; conditions: RAW264.7, 24 h
# RAW264.7 [14] = test: Anti-inflammatory activity in mouse RAW264.7 cells assessed as inhibition of LPS-induced IL-6 mRNA expression at 10^-3 M after 24 hrs by qRT-PCR analysis; format: functional; conditions: RAW264.7, 24 h
# RAW264.7 [15] = test: Anti-inflammatory activity in mouse RAW264.7 cells assessed as inhibition of LPS-induced IL-1beta mRNA expression at 10^-3 M after 24 hrs by qRT-PCR analysis; format: functional; conditions: RAW264.7, 24 h
# RAW264.7 [16] = test: Antiinflammatory activity in mouse RAW264.7 cells assessed as decrease in LPS-induced IL-8 level at 10^-3 M by ELISA; format: functional; design: scale not given: the % may be the effect or the level left
# RAW264.7 [17] = test: Antiinflammatory activity in mouse RAW264.7 cells assessed as decrease in LPS-induced TNF-alpha level at 10^-3 M by ELISA; format: functional; design: scale not given: the % may be the effect or the level left
# RAW264.7 [18] = test: Antiinflammatory activity in mouse RAW264.7 cells assessed as decrease in LPS-induced IL-6 level at 10^-3 M by ELISA; format: functional; design: scale not given: the % may be the effect or the level left
# [19] = molecular target: Mitogen-activated protein kinase 1 and 3 (ERK2 and ERK1) (Mus musculus) (UniProt P63085+Q63844); test: Inhibition of LPS-induced ERK-1/2 phosphorylation in mouse RAW264.7 cells at 0.5 x 10^-3 to 10^-3 M after 24 hrs by Western blot analysis; format: cell-based
# RAW264.7 [20] = test: Inhibition of LPS-stimulated NFkappaB/MAPK signaling activation in mouse RAW264.7 cells assessed as decrease in phosphorylated c-Jun protein level at 0.5 x 10^-3 to 10^-3 M after 24 hrs by Western blot analysis; format: cell-based
# RAW264.7 [21] = test: Inhibition of LPS-stimulated NFkappaB/MAPK signaling activation in mouse RAW264.7 cells assessed as decrease in JunB protein level at 0.5 x 10^-3 to 10^-3 M after 24 hrs by Western blot analysis; format: cell-based
# Chain of Mitogen-activated protein kinase 1 and 3 (ERK2 and ERK1) (Mus musculus) (P63085 whole entry, looked up): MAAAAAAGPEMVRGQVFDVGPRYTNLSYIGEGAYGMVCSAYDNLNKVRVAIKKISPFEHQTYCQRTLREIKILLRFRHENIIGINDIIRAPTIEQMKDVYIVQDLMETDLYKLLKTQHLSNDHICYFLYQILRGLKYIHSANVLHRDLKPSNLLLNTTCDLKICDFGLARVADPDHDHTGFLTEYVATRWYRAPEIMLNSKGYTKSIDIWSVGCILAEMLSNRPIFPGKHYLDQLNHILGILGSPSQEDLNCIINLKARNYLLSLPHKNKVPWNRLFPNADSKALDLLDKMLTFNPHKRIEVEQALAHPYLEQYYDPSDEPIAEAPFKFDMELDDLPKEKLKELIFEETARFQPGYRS
# Chain of Mitogen-activated protein kinase 1 and 3 (ERK2 and ERK1) (Mus musculus) (Q63844 whole entry, looked up): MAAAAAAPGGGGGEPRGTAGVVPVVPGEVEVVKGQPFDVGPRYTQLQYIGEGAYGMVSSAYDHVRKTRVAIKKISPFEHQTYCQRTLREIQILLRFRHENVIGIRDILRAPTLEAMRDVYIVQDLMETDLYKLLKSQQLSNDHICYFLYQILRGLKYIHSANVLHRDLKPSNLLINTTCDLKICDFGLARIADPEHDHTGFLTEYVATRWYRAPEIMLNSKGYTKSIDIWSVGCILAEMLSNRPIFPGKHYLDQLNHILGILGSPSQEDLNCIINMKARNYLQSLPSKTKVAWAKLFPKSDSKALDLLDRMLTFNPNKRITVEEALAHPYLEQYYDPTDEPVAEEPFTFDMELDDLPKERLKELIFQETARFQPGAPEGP
smiles,measurement,setting,value
CC1(C)[C@@H](O[C@H]2O[C@H](C(=O)[O-])[C@@H](O)[C@H](O)[C@H]2O[C@@H]2O[C@H](C(=O)[O-])[C@@H](O)[C@H](O)[C@H]2O)CC[C@]2(C)[C@H]3C(=O)C=C4[C@@H]5C[C@@](C)(C(=O)O)CC[C@]5(C)CC[C@@]4(C)[C@]3(C)CC[C@@H]12.O.O.O.O.[Mg+2],Activity,RAW264.7 [1],33.6%
same,inhibition,RAW264.7 [2],Active
same,inhibition,[3],Active
same,inhibition,RAW264.7 [4],Dose-dependent effect
same,inhibition,RAW264.7 [5],Dose-dependent effect
same,inhibition,RAW264.7 [6],Active
same,inhibition,RAW264.7 [7],Active
same,inhibition,RAW264.7 [8],Active
same,inhibition,RAW264.7 [9],Active
same,inhibition,RAW264.7 [10],Active
same,inhibition,RAW264.7 [11],Dose-dependent effect
same,inhibition at 1000 µM,RAW264.7 [12],88.4%
same,inhibition at 1000 µM,RAW264.7 [13],48.6%
same,inhibition at 1000 µM,RAW264.7 [14],46.2%
same,inhibition at 1000 µM,RAW264.7 [15],61.7%
same,Activity,RAW264.7 [16],49.3%
same,Activity,RAW264.7 [17],17.3%
same,Activity,RAW264.7 [18],28.7%
same,inhibition,[19],Active
same,inhibition,RAW264.7 [20],Active
same,inhibition,RAW264.7 [21],Active
